Test system: dermal papilla cells
Test: Dermal papilla cell growth promotion effect of functional raw materials and heat-treated LM1020, alone or combined (Colby prediction)
Format: cell-based, human
Settings: for effect on growth of dermal papilla cells / Effect of promoting growth of dermal papilla cell (%) Measured value: medium lacking growth factor; for Effect of promoting growth of dermal papilla cell (%) Measured value: raw material alone or LSD mixture, without LM1020
Method: The effect on the growth of dermal papilla cells was confirmed when the heat-treated Limosilactobacillus fermentum LM1020 was used together with L-menthol, salicylic acid, and dexpanthenol, which are active ingredients frequently used for functional cosmetics that help relieve hair loss symptoms. After the dermal papilla cells were seeded in a 96-well plate and cultured for 24 hours, the medium in the well was replaced with a medium lacking growth factor and further cultured for 24 hours. Then, the heat-treated Limosilactobacillus fermentum LM1020, L-menthol, salicylic acid, and dexpanthenol were used alone or mixed in a ratio of […] and used for treatment of dermal papilla cells prepared by the above-described method to determine the effect on the growth of the dermal papilla cells.
A growth rate of dermal papilla cells when cultured alone and growth rates of dermal papilla cells when treated alone or in a combination of L-menthol, salicylic acid, dexpanthenol, and the heat-treated Limosilactobacillus fermentum LM1020 were calculated. Then, the effects of the respective treatment materials on the promotion of growth of dermal papilla cells were calculated using the formula below and compared with each other. All the tests were repeated three times, and the average of each result was calculated and compared. • Dermal papilla cell growth promotion effect (%)=(B−A)÷A×100 • A=Growth rate of dermal papilla cells in non-treatment group • B=Growth rate of dermal papilla cells when treated with L-menthol, salicylic acid, dexpanthenol, and heat-treated Limosilactobacillus fermentum LM1020
Meanwhile, it was confirmed that when the heat-treated Limosilactobacillus fermentum LM1020 is used for treatment together with compounds of L-menthol, salicylic acid, and dexpanthenol, it is possible to overcome the effect of the compounds on the inhibition of growth of dermal papilla cells and promote the growth of dermal papilla cells. In order to thoroughly understand their synergistic effect, the effect to be predicted was calculated using the Colby formula, and a prediction value was compared with an experimental value (measurement value) to verify whether a synergistic effect exceeding the prediction value can be achieved.

| SMILES | effect on growth of dermal papilla cells | Effect of promoting growth of dermal papilla cell (%) Measured value [%] | effect on promotion of growth of dermal papilla cells compared with heat-treated LM1020 (dexpanthenol alone vs LM1020 alone) |
| --- | --- | --- | --- |
| CC(C)[C@@H]1CC[C@@H](C)C[C@H]1O [L-menthol] | inhibit the growth of dermal papilla cells | −12.05 ± 3.31 |  |
| CC(C)(CO)[C@@H](O)C(=O)NCCCO [dexpanthenol] | able to promote the growth of dermal papilla cells | 2.35 ± 1.61 | lower than that of the heat-treated Limosilactobacillus fermentum LM1020 at all concentrations |
| O=C(O)c1ccccc1O [salicylic acid] | inhibit the growth of dermal papilla cells | −0.39 ± 0.80 |  |

Reference: patent US12697359B2, “Composition for preventing hair loss and promoting hair growth comprising postbiotic components from heat-treat Limosilactobacillus fermentum LM1020” (priority 2023, dated 2026)
